Assay results published in US8952024B2, “Herbicidal pyrimidone derivatives” (E I du Pont de Nemours and Company, priority 2009, dated 2015).

Legend:
Experiment in all cases: Test B pre-/postemergence plant response
Assay type in all cases: in vivo
[1] = tested on: johnsongrass (Sorghum halepense)
In short: (§1)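 Pre-em in loam/sand; post-em at 1–4 leaf (2–18 cm) in peat mix. Solvent + surfactant formulation. Greenhouse 13–15 d; visual % control vs untreated, 0–100.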

[2] = tested on: Surinam grass (Brachiaria decumbens)
In short: as §1

[3] = tested on: giant foxtail (Setaria faberii)
In short: as §1

[4] = tested on: pigweed (Amaranthus retroflexus)
In short: as §1

[5] = tested on: velvetleaf (Abutilon theophrasti)
In short: as §1

soybean (Glycine max) = tested on: soybean (Glycine max)
In short: as §1

kochia (Kochia scoparia) = tested on: kochia (Kochia scoparia)
In short: as §1

[6] = tested on: blackgrass (Alopecurus myosuroides); settings: for Blackgrass plant response rating (0 to 100 scale): 0 is no effect
In short: as §1

[7] = tested on: downy bromegrass (Bromus tectorum); settings: for Bromegrass, Downy plant response rating (0 to 100 scale): 0 is no effect
In short: as §1

[8] = tested on: ragweed (common ragweed, Ambrosia elatior)
In short: as §1

[9] = tested on: Italian ryegrass (Lolium multiflorum)
In short: as §1

[10] = tested on: woolly cupgrass (Eriochloa villosa)
In short: as §1

corn (Zea mays) = tested on: corn (Zea mays)
In short: as §1

[11] = 31 g ai/ha, postemergence, scale 0 to 100, 0 is no effect, 100 is complete control
[12] = 62 g ai/ha, postemergence, 0 is no effect, 100 is complete control, 13 to 15 days
[13] = Postemergence, 125 g ai/ha, scale 0 to 100 (0 no effect, 100 complete control)
[14] = Postemergence, 250 g ai/ha, scale 0 to 100 (0 no effect, 100 complete control)
[15] = Preemergence, 31 g ai/ha, scale 0 to 100 (0 no effect, 100 complete control)
[16] = Preemergence, 62 g ai/ha, scale 0 to 100 (0 no effect, 100 complete control)
[17] = Preemergence, 125 g ai/ha, scale 0 to 100, 0 no effect, 100 complete control
[18] = Preemergence, 250 g ai/ha, 0 to 100 scale
[19] = 62 g ai/ha, postemergence, 100 is complete control, 13 to 15 days
[20] = Postemergence, 31 g ai/ha, 0 to 100 scale (0 no effect, 100 complete control)
[21] = Postemergence, 250 g ai/ha, scale 0 to 100 (0 no effect, 100 complete control), 13 to 15 days

**Q.** What does the source list for COCCn1c(-c2cc(F)cc(F)c2)ncc(C(=O)C2=C(O)CCCC2=O)c1=O [Compound 119]?
**A.** Plant response rating, Johnsongrass [1, 11]: 10; Johnsongrass plant response rating (0 to 100 scale) [1, 12]: 40; Plant response rating, Johnsongrass [1, 13]: 75; Plant response rating, Johnsongrass [1, 14]: 80; Plant response rating, Johnsongrass [1, 15]: 50; Plant response rating, Johnsongrass [1, 16]: 85; Plant response rating, Johnsongrass [1, 17]: 95; Johnsongrass plant response rating [1, 18]: 95; Surinam Grass plant response rating (0 to 100 scale) [2, 12]: 85; Plant response rating, Surinam Grass [2, 13]: 95; Plant response rating, Surinam Grass [2, 14]: 98; Plant response rating, Surinam Grass [2, 15]: 90; Plant response rating, Surinam Grass [2, 16]: 98; Plant response rating, Surinam Grass [2, 17]: 100; Surinam Grass plant response rating [2, 18]: 100; Plant response rating, Foxtail, Giant [3, 11]: 75; Foxtail, Giant plant response rating (0 to 100 scale) [3, 12]: 85; Plant response rating, Foxtail, Giant [3, 13]: 95; Plant response rating, Foxtail, Giant [3, 14]: 95; Plant response rating, Foxtail, Giant [3, 15]: 55; Plant response rating, Foxtail, Giant [3, 16]: 85; Plant response rating, Foxtail, Giant [3, 17]: 95; Foxtail, Giant plant response rating [3, 18]: 100; Plant response rating, Pigweed [4, 11]: 95; Pigweed plant response rating (0 to 100 scale) [4, 12]: 98; Plant response rating, Pigweed [4, 13]: 100; Plant response rating, Pigweed [4, 14]: 100; Plant response rating, Pigweed [4, 15]: 80; Plant response rating, Pigweed [4, 16]: 90; Plant response rating, Pigweed [4, 17]: 100; Pigweed plant response rating [4, 18]: 100; Velvetleaf plant response rating (0 to 100 scale) [5, 12]: 80; Plant response rating, Velvetleaf [5, 13]: 100; Plant response rating, Velvetleaf [5, 14]: 100; Plant response rating, Velvetleaf [5, 15]: 75; Plant response rating, Velvetleaf [5, 16]: 80; Plant response rating, Velvetleaf [5, 17]: 100; Velvetleaf plant response rating [5, 18]: 100; Soybean plant response rating (0 to 100 scale) (soybean (Glycine max); [12]): 50; Plant response rating, Soybean (soybean (Glycine max); [13]): 60; Plant response rating, Soybean (soybean (Glycine max); [14]): 80; Plant response rating, Soybean (soybean (Glycine max); [15]): 10; Plant response rating, Soybean (soybean (Glycine max); [16]): 55; Plant response rating, Soybean (soybean (Glycine max); [17]): 80; Soybean plant response rating (soybean (Glycine max); [18]): 80; Plant response rating, Kochia (kochia (Kochia scoparia); [11]): 40; Kochia plant response rating (0 to 100 scale) (kochia (Kochia scoparia); [12]): 75; Plant response rating, Kochia (kochia (Kochia scoparia); [13]): 95; Plant response rating, Kochia (kochia (Kochia scoparia); [14]): 100; Plant response rating, Kochia (kochia (Kochia scoparia); [15]): 0; Plant response rating, Kochia (kochia (Kochia scoparia); [16]): 0; Plant response rating, Kochia (kochia (Kochia scoparia); [17]): 55; Kochia plant response rating (kochia (Kochia scoparia); [18]): 98; Plant response rating, Blackgrass [6, 11]: 5; Blackgrass plant response rating (0 to 100 scale) [6, 19]: 20; Plant response rating, Blackgrass [6, 13]: 50; Plant response rating, Blackgrass [6, 14]: 50; Plant response rating, Blackgrass [6, 15]: 30; Plant response rating, Blackgrass [6, 16]: 30; Plant response rating, Blackgrass [6, 17]: 50; Blackgrass plant response rating [6, 18]: 70; Plant response rating, Bromegrass, Downy [7, 11]: 10; Bromegrass, Downy plant response rating (0 to 100 scale) [7, 19]: 30; Plant response rating, Bromegrass, Downy [7, 13]: 60; Plant response rating, Bromegrass, Downy [7, 14]: 85; Plant response rating, Bromegrass, Downy [7, 15]: 0; Plant response rating, Bromegrass, Downy [7, 16]: 50; Plant response rating, Bromegrass, Downy [7, 17]: 55; Bromegrass, Downy plant response rating [7, 18]: 55; Ragweed plant response rating (0 to 100 scale) [8, 12]: 75; Plant response rating, Ragweed [8, 13]: 95; Plant response rating, Ragweed [8, 14]: 98; Plant response rating, Ragweed [8, 15]: 80; Plant response rating, Ragweed [8, 16]: 80; Plant response rating, Ragweed [8, 17]: 95; Ragweed plant response rating [8, 18]: 95; Ryegrass, Italian plant response rating (0 to 100 scale) [9, 12]: 30; Plant response rating, Ryegrass, Italian [9, 13]: 60; Plant response rating, Ryegrass, Italian [9, 14]: 85; Plant response rating, Ryegrass, Italian [9, 15]: 100; Plant response rating, Ryegrass, Italian [9, 16]: 100; Plant response rating, Ryegrass, Italian [9, 17]: 100; Ryegrass, Italian plant response rating [9, 18]: 100; Plant response rating, Cupgrass, Woolly [10, 11]: 75; Cupgrass, Woolly plant response rating (0 to 100 scale) [10, 12]: 98; Plant response rating, Cupgrass, Woolly [10, 13]: 98; Plant response rating, Cupgrass, Woolly [10, 14]: 100; Plant response rating, Cupgrass, Woolly [10, 15]: 65; Plant response rating, Cupgrass, Woolly [10, 16]: 75; Plant response rating, Cupgrass, Woolly [10, 17]: 95; Cupgrass, Woolly plant response rating [10, 18]: 100; Plant response rating, Corn (corn (Zea mays); [11]): 20; Corn plant response rating (0 to 100 scale) (corn (Zea mays); [12]): 45; Plant response rating, Corn (corn (Zea mays); [13]): 60; Plant response rating, Corn (corn (Zea mays); [14]): 70; Plant response rating, Corn (corn (Zea mays); [15]): 0; Plant response rating, Corn (corn (Zea mays); [16]): 40; Plant response rating, Corn (corn (Zea mays); [17]): 50; Corn plant response rating (corn (Zea mays); [18]): 50

**Q.** For O=C1CCCC(O)=C1C(=O)c1cnc(-c2ccccc2)n(C2CCSCC2)c1=O [Compound 164], which “Plant response rating, Johnsongrass” value [1, 20] is on record?
**A.** 45

**Q.** What about the “Plant response rating, Johnsongrass” value [1, 13] of the same compound?
**A.** 95

**Q.** And the “Plant response rating, Johnsongrass” value [1, 21]?
**A.** 98

**Q.** And the “Plant response rating, Surinam Grass” value [2, 20]?
**A.** 60

**Q.** What about the “Plant response rating, Surinam Grass” value [2, 13] of the same compound?
**A.** 95

**Q.** And the “Plant response rating, Surinam Grass” value [2, 21]?
**A.** 98

**Q.** What about the “Plant response rating, Foxtail, Giant” value [3, 20] of the same compound?
**A.** 90

**Q.** And the “Plant response rating, Foxtail, Giant” value [3, 13]?
**A.** 98

**Q.** And the “Plant response rating, Foxtail, Giant” value [3, 21]?
**A.** 100

**Q.** What about the “Plant response rating, Pigweed” value [4, 20] of the same compound?
**A.** 98

**Q.** What about the “Plant response rating, Pigweed” value [4, 13] of the same compound?
**A.** 100

**Q.** What about the “Plant response rating, Pigweed” value [4, 21] of the same compound?
**A.** 100

**Q.** What about the “Plant response rating, Velvetleaf” value [5, 20] of the same compound?
**A.** 70

**Q.** What about the “Plant response rating, Velvetleaf” value [5, 13] of the same compound?
**A.** 80

**Q.** What about the “Plant response rating, Velvetleaf” value [5, 21] of the same compound?
**A.** 95

**Q.** And the “Plant response rating, Soybean” value (soybean (Glycine max); [20])?
**A.** 80

**Q.** What about the “Plant response rating, Soybean” value (soybean (Glycine max); [13]) of the same compound?
**A.** 100

**Q.** And the “Plant response rating, Soybean” value (soybean (Glycine max); [21])?
**A.** 100

**Q.** What about the “Plant response rating, Kochia” value (kochia (Kochia scoparia); [20]) of the same compound?
**A.** 98

**Q.** And the “Plant response rating, Kochia” value (kochia (Kochia scoparia); [13])?
**A.** 100

**Q.** And the “Plant response rating, Kochia” value (kochia (Kochia scoparia); [21])?
**A.** 100

**Q.** What about the “Blackgrass plant response rating (0 to 100 scale)” value [6, 19] of the same compound?
**A.** 5

**Q.** And the “Plant response rating, Blackgrass” value [6, 20]?
**A.** 5

**Q.** What about the “Plant response rating, Blackgrass” value [6, 13] of the same compound?
**A.** 10

**Q.** What about the “Plant response rating, Blackgrass” value [6, 21] of the same compound?
**A.** 35

**Q.** And the “Bromegrass, Downy plant response rating (0 to 100 scale)” value [7, 19]?
**A.** 80

**Q.** And the “Plant response rating, Bromegrass, Downy” value [7, 20]?
**A.** 40

**Q.** And the “Plant response rating, Bromegrass, Downy” value [7, 13]?
**A.** 85

**Q.** What about the “Plant response rating, Bromegrass, Downy” value [7, 21] of the same compound?
**A.** 95

**Q.** And the “Plant response rating, Ragweed” value [8, 20]?
**A.** 85

**Q.** What about the “Plant response rating, Ragweed” value [8, 13] of the same compound?
**A.** 98

**Q.** What about the “Plant response rating, Ragweed” value [8, 21] of the same compound?
**A.** 100

**Q.** And the “Plant response rating, Ryegrass, Italian” value [9, 20]?
**A.** 5

**Q.** And the “Plant response rating, Ryegrass, Italian” value [9, 13]?
**A.** 20

**Q.** And the “Plant response rating, Ryegrass, Italian” value [9, 21]?
**A.** 40

**Q.** And the “Plant response rating, Cupgrass, Woolly” value [10, 20]?
**A.** 75

**Q.** What about the “Plant response rating, Cupgrass, Woolly” value [10, 13] of the same compound?
**A.** 98

**Q.** What about the “Plant response rating, Cupgrass, Woolly” value [10, 21] of the same compound?
**A.** 100

**Q.** And the “Plant response rating, Corn” value (corn (Zea mays); [20])?
**A.** 15

**Q.** What about the “Plant response rating, Corn” value (corn (Zea mays); [13]) of the same compound?
**A.** 45

**Q.** What about the “Plant response rating, Corn” value (corn (Zea mays); [21]) of the same compound?
**A.** 70
